# Results from ChEMBL document CHEMBL1128834, “Potent mammalian topoisomerase II inhibitors: 1-cyclopropyl-6,8-difluoro-1,4-dihydro-7-(2,6-dimethyl-4-pyridinyl)-4-substituted-quinolines” (Bioorg Med Chem Lett, 1995).
# System: P388
# Assay: In vitro cytotoxicity was determined by quantitating P388 murine leukemia cells on a oultier counter following a 48 hour exposure of cells to the test compound
# Type: functional, cell-based
# Settings: Mus musculus, P388, 48 h
row,SMILES,IC50
1,Cc1cc(-c2c(F)cc3/c(=N/N)ccn(C4CC4)c3c2F)cc(C)n1,3 µM

# System: Mus musculus
# Assay: In vivo antitumor activity was observed in mice at a dose of […] administered intravenously, subcutaneously
# Type: functional
# Settings: route intravenous
row,SMILES,T/C
1,Cc1cc(-c2c(F)cc3/c(=N/Nc4ccccn4)ccn(C4CC4)c3c2F)cc(C)n1,37%

# System: Mus musculus
# Assay: In vivo antitumor activity was observed in mice at a dose of 96 mg/kg administered intravenously
# Type: functional
# Settings: route intravenous
row,SMILES,T/C
1,COc1cc([C@@H]2c3cc4c(cc3[C@@H](O[C@@H]3O[C@@H]5CO[C@@H](C)O[C@H]5[C@H](O)[C@H]3O)[C@H]3COC(=O)[C@H]23)OCO4)cc(OC)c1O [ETOPOSIDE],3%

# Molecular target: DNA topoisomerase II (Homo sapiens, UniProt P11388+Q02880)
# Assay: Inhibitory activity in a cell-free assay of DNA cleavage mediated by purified HeLa cell topoisomerase II.
# Settings: not given
row,SMILES,EC50
1,Cc1cc(-c2c(F)cc3/c(=N/C4CC4)ccn(C4CC4)c3c2F)cc(C)n1,2.4 µM
2,Cc1cc(-c2c(F)cc3/c(=N\O)ccn(C4CC4)c3c2F)cc(C)n1,1.4 µM
3,Cc1cc(-c2c(F)cc3/c(=N/Nc4cnc5ccccc5c4)ccn(C4CC4)c3c2F)cc(C)n1,92 µM
4,Cc1cc(-c2c(F)cc3/c(=N/Nc4ccccn4)ccn(C4CC4)c3c2F)cc(C)n1,0.98 µM
5,Cc1cc(-c2c(F)cc3c(=S)ccn(C4CC4)c3c2F)cc(C)n1,76 µM
6,Cc1cc(-c2c(F)cc3/c(=N/CCCN(C)C)ccn(C4CC4)c3c2F)cc(C)n1,5.5 µM
7,Cc1cc(-c2c(F)cc3/c(=N/Nc4c5ccccc5nc5ccccc45)ccn(C4CC4)c3c2F)cc(C)n1,21 µM
8,Cc1cc(-c2c(F)cc3/c(=N/c4ccccn4)ccn(C4CC4)c3c2F)cc(C)n1,3.6 µM
9,Cc1cc(-c2c(F)cc3/c(=N/c4ccc(N)cc4)ccn(C4CC4)c3c2F)cc(C)n1,7.6 µM
10,Cc1ccc(S(=O)(=O)/N=c2\ccn(C3CC3)c3c(F)c(-c4cc(C)nc(C)c4)c(F)cc23)cc1,45 µM
11,Cc1cc(-c2c(F)cc3c(c2F)N(C2CC2)C=C/C3=C/C#N)cc(C)n1,4 µM

# Results, then the compound that gave them:
row,EC50,SMILES
1,2.6 µM,CO/N=c1/ccn(C2CC2)c2c(F)c(-c3cc(C)nc(C)c3)c(F)cc12
2,16 µM,Cc1cc(-c2c(F)cc3/c(=N/N4C(=O)c5ccccc5C4=O)ccn(C4CC4)c3c2F)cc(C)n1
3,20 µM,CC(=O)N/N=c1\ccn(C2CC2)c2c(F)c(-c3cc(C)nc(C)c3)c(F)cc12
4,9.4 µM,Cc1cc(-c2c(F)cc3/c(=N/Sc4ccc(Cl)cc4)ccn(C4CC4)c3c2F)cc(C)n1
5,6.3 µM,Cc1cc(-c2c(F)cc3c(c2F)N(C2CC2)C=CC3=C(C#N)C#N)cc(C)n1
6,1.9 µM,CN/N=c1\ccn(C2CC2)c2c(F)c(-c3cc(C)nc(C)c3)c(F)cc12
7,12 µM,Cc1cc(-c2c(F)cc3c(=N)ccn(C4CC4)c3c2F)cc(C)n1
8,1.7 µM,Cc1cc(-c2c(F)cc3/c(=N/N)ccn(C4CC4)c3c2F)cc(C)n1
9,3.1 µM,Cc1cc(-c2c(F)cc3/c(=N/NC(N)=O)ccn(C4CC4)c3c2F)cc(C)n1
10,4.8 µM,CCOC(=O)/C(C#N)=C1\C=CN(C2CC2)c2c1cc(F)c(-c1cc(C)nc(C)c1)c2F
11,1.6 µM,Cc1cc(-c2c(F)cc3/c(=N/c4ccccc4O)ccn(C4CC4)c3c2F)cc(C)n1
12,3.2 µM,Cc1cc(-c2c(F)cc3/c(=N/NCCO)ccn(C4CC4)c3c2F)cc(C)n1
13,2.3 µM,Cc1cc(-c2c(F)cc3/c(=N/N(C)C)ccn(C4CC4)c3c2F)cc(C)n1
14,14 µM,Cc1cc(-c2c(F)cc3/c(=N/CCN(C)C)ccn(C4CC4)c3c2F)cc(C)n1
15,3.8 µM,Cc1cc(-c2c(F)cc3/c(=N/Sc4ccccn4)ccn(C4CC4)c3c2F)cc(C)n1

# Same assay, conditions: read-out: EC50
row,EC50,SMILES
1,2.7 µM,Cc1cc(-c2c(F)cc3c4nn(-c5ccccc5)c(=O)c-4cn(C4CC4)c3c2F)cc(C)n1

# System: P388
# Assay: In vitro cytotoxicity was determined by quantitating P388 murine leukemia cells on a coultier counter following a 48 hour exposure of cells to the test compound
# Type: functional, cell-based
# Settings: Mus musculus, P388, 48 h
row,SMILES,IC50
1,Cc1cc(-c2c(F)cc3c(=O)ccn(C4CC4)c3c2F)cc(C)n1,9.7 µM
2,Cc1cc(-c2c(F)cc3/c(=N/Nc4ccccn4)ccn(C4CC4)c3c2F)cc(C)n1,1 µM
3,Cc1cc(-c2c(F)cc3/c(=N/N(C)C)ccn(C4CC4)c3c2F)cc(C)n1,0.27 µM

# System: P388
# Assay: In vitro cytotoxicity was determined by quantitating P388 murine leukemia cells on a Coulter Counter following a 48 hour exposure of cells to the test compound
# Type: functional, cell-based
# Settings: Mus musculus, P388, 48 h
row,SMILES,IC50
1,COc1cc([C@@H]2c3cc4c(cc3[C@@H](O[C@@H]3O[C@@H]5CO[C@@H](C)O[C@H]5[C@H](O)[C@H]3O)[C@H]3COC(=O)[C@H]23)OCO4)cc(OC)c1O [ETOPOSIDE],0.12 µM
